Results on 1 molecule are retold here after paper PMC4370873, “The RNA Template Channel of the RNA-Dependent RNA Polymerase as a Target for Development of Antiviral Therapy of Multiple Genera within a Virus Family” (PLoS Pathogens, 2015).

pKi: −log10 of the molar value.

By pKi is commonly meant the negative decadic logarithm of the Ki, by convention in mol/L. Lower therefore signals a large Ki.

This test addresses T1, EMCV 3Dpol (Mengo virus, UniProt P12296).
T1 construct: mature 3Dpol cut from polyprotein (1834 to 2293, 460 residues); cleavable His6-thioredoxin tag (pETG20A) removed; expressed in E. coli Rosetta (DE3) pLysS
The test is described as follows: [3H]UTP incorporation on poly(rA)/dT15, filter binding. The format is biochemical.

T1 sequence (P12296 1834-2293): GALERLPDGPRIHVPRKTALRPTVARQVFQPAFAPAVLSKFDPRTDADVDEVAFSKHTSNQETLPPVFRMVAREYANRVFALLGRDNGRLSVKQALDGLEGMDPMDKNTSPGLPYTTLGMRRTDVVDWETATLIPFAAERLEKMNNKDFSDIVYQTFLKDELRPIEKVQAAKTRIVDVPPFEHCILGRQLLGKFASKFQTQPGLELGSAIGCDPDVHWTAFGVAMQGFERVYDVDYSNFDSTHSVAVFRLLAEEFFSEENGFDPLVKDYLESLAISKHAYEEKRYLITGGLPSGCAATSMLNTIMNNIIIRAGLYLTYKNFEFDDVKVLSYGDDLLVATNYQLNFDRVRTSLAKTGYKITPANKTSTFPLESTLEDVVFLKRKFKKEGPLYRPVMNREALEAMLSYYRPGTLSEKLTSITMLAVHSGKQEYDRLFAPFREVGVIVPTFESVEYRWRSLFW

`N#Cc1cc([N+](=O)[O-])ccc1Oc1ccc(Cl)cc1Oc1ccc([N+](=O)[O-])cc1C#N` [GPC-N114, 2,2'-[(4-chloro-1,2-phenylene)bis(oxy)]bis(5-nitro-benzonitrile)] gave a pKi of 5.89.
